Data as given in patent publication EP2951180B1, “2,6,7,8 SUBSTITUTED PURINES AS HDM2 INHIBITORS” (Merck Sharp & Dohme Corp., priority 2013, dated 2014).
Where two headings read alike, the source gives them in different places.

Biological target: T1, HDM2 (Homo sapiens, UniProt Q00987)
T1 construct: Thioredoxin (N); made in house; host or cells: E. coli strain BL21(DE3)Rosetta
Assay: HDM2 FRET assay (inhibition of binding of FITC labeled p53-pocket peptide to HDM2)
Conditions: read-out: FRET IC50
Excerpt: Methods: An HDM2 FRET assay was developed to assess the compounds' inhibitory activity towards binding of p53 protein. […] Protein was purified using Ni-affinity chromatography, followed by size exclusion chromatography using Superdex 75 26/60 column. […] The HDM2 assay buffer contained 1x Phosphate Buffered Saline (Invitrogen, Cat#14190), 0.01% BSA (Jackson ImmunoResearch, Cat# 001-000-162), 0.01% Tween-20. In the 1X assay buffer recombinant HDM2 protein, peptide and Lumi4-Tb Cryptate-conjugate mouse anti-6xHis antibody (cisbio, Cat#Tb61HISTLB) were added and transferred to ProxiPlate PLUS (PerkinElmer, Cat#6008269), containing compounds so that final DMSO concentration is 0.1% . Final concentrations of reagents in the assay wells are 0.5 nM HDM2, 0.25nM anti HIS (Tb label) antibody and 3nM peptide. […] Ratio of em520/em495 was used to calculate %inhibition and to obtain IC50 with 4-parameter logistic equation.
IC50 DETERMINATIONS: Dose-response curves were plotted from the inhibition data, from 10 point serial dilutions of inhibitory compounds. Concentration of compound was plotted against em520/Cem495 ratio signal. To generate IC50 values, the dose-response curves were fitted to a standard sigmoidal curve and IC50 values were derived by nonlinear regression analysis.

[1] = 0.5 nM HDM2 (residues 17 to 125), 3nM peptide, two hour incubation at room temperature

T1 sequence (Q00987 17-125): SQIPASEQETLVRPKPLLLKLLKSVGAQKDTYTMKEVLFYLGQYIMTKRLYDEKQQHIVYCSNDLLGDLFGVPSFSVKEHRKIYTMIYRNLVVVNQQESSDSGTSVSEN

SMILES	IC50 [1] [nM]	further results
C[C@@H](Nc1nc(S(C)(=O)=O)nc2nc(N3CCCCC3c3ccccc3)n(C[C@H]3CC[C@H](C)CC3)c12)C1CCC1 (single isomer, unassigned) [Example 14.10]	109	
C[C@@H](Nc1nc(-c2noc(=O)[nH]2)nc2nc(N3CCCCC34CC4)n(Cc3ccc(C(F)(F)F)cc3)c12)C1CCC1 [Example 9.85, 3-{8-(4-azaspiro[2.5]oct-4-yl)-6-{[(1R)-1-cyclobutylethyl]amino}-7-[4-(trifluoromethyl)benzyl]-7H-purin-2-yl}-1,2,4-oxadiazol-5(4H)-one]		IC50 (Table 9): 9.84 nM
C[C@@H](Nc1nc(C(=O)O)nc2nc(-c3cc(C(C)(C)C)ccn3)n(C[C@H]3CC[C@H](C)CC3)c12)C1CCC1 [Example 15.16, 8-(4-tert-butylpyridin-2-yl)-6-{[(1R)-1-cyclobutylethyl]amino}-7-[(trans-4-methylcyclohexyl)methyl]-7H-purine-2-carboxylic acid]	1.04	
CCC(c1ccccc1)N(C)c1nc2nc(-c3noc(=O)[nH]3)nc(N[C@H](C)C3CCC3)c2n1Cc1ccc(C(F)(F)F)c(F)c1 (stereo partly drawn) [Example 9.71, 3-(6-{[(1R)-1-cyclobutylethyl]amino}-7-[3-fluoro-4-(trifluoromethyl)benzyl]-8-[methyl(1-phenylpropyl)amino]-7H-purin-2-yl)-1,2,4-oxadiazol-5(4H)-one]		IC50 (Table 9): 18.1 nM
C[C@H]1CC[C@H](Cn2c(C3(F)CCCCC3)nc3nc(-c4n[nH]c(=O)o4)nc(-c4cncc(Cl)c4)c32)CC1 [Example 23.56, 5-{6-(5-chloropyridin-3-yl)-8-(1-fluorocyclohexyl)-7-[(trans-4-methylcyclohexyl)methyl] -7H-purin-2-yl}-1,3,4-oxadiazol-2(3H)-one]		IC50 (Table 23): 10.7 nM
C[C@H]1CC[C@H](Cn2c(N3CCOC[C@H]3c3ccc(F)cc3)nc3nc(-c4n[nH]c(=O)o4)nc(-c4cncc(Cl)c4)c32)CC1 [Example 16.94, 5-{6-(5-chloropyridin-3-yl)-8-[(3R)-3-(4-fluorophenyl)morpholin-4-yl]-7-[(trans-4-methylcyclohexyl)methyl]-7H-purin-2-yl}-1,3,4-oxadiazol-2(3H)-one]	1.98	
C[C@H]1CC[C@H](Cn2c(N3CCOC[C@H]3c3ccncc3)nc3nc(-c4n[nH]c(=O)o4)nc(-c4cccc(Cl)c4)c32)CC1 [Example 16.97, 5-{6-(3-chlorophenyl)-7-[(trans-4-methylcyclohexyl)methyl]-8-[(3R)-3-pyridin-4-ylmorpholin-4-yl]-7H-purin-2-yl}-1,3,4-oxadiazol-2(3H)-one]	3.81	
CSC1(C(=O)O)CCN(c2nc(N[C@H](C)C3CCC3)c3c(n2)nc(N2CCOC[C@H]2c2ccccc2)n3C[C@H]2CC[C@H](C)CC2)C1 (stereo partly drawn) [Example 13.10, 1-(6-{[(1R)-1-cyclobutylethyl]amino}-7-[(trans-4-methylcyclohexyl)methyl]-8-[(3R)-3-phenylmorpholin-4-yl]-7H-purin-2-yl)-3-(methylsulfanyl)pyrrol idine-3-carboxylic acid]	248	
C[C@@H]1CN(C)C(=O)CN1c1nc2nc(-c3noc(=O)[nH]3)nc(-c3cccc(Cl)c3)c2n1C[C@H]1CC[C@H](C)CC1 [Example 16.68, (5R)-4-[6-(3-chlorophenyl)-7-[(trans-4-methylcyclohexyl)methyl]-2-(5-oxo-4,5-dihydro-1,2,4-oxadiazol-3-yl)-7H-purin-8-yl]-1,5-dimethylpiperazin-2-one]	11.5	
C[C@@H]1OCCN(c2nc3nc(-c4n[nH]c(=O)o4)nc(N[C@H](C)C4CCC4)c3n2C[C@H]2CC[C@H](C)CC2)[C@H]1C (stereo in doubt) [Example 11.167, 5-(6-{[(1R)-1-cyclobutylethyl]amino}-8-[(trans)-2,3-dimethylmorpholin-4-yl]-7-[(trans-4-methylcyclohexyl)methyl]-7H-purin-2-yl)-1,3,4-oxadiazol-2(3H)-one]		IC50 (Table 11): 2.16 nM
